The assay deals with Gram-negative strains. Kind of assay: MIC determination, Gram-negative strains. It counts as cell-based. To be noted: range over Gram-negative strains. The protocol: The examinations were carried out by using the bacteria strains listed hereinbelow: Gram-negative strains E. coli 35034 Klebsiella 52001 Klebsiella ATCC 1200 S. hartford 10063 P. mirabilis 60012 P. morganii 63002 P. rettgeri 65002 P. inconstans 67001 P. aeruginosa ATCC 27853

Molecules are shown by their SMILES.

Broadly, the MIC is the smallest concentration in the dilution series that meets the test's criterion for growth inhibition. A low value points to greater potency.

In turn, `Cn1nnnc1SCC(=O)NC1C(=O)N2C(C(=O)O)=C(CNC(=O)c3c(Cl)cccc3Cl)CSC12` (stereo not drawn) [Example 14, 7-(1-methyl-1H-tetrazole-5-ylthio)acetamido-3-(2,6-dichlorobenzamino)methylceph-3-em-4-carboxylic acid] returned an MIC of over 100 µg/mL.

In turn, `CC(=O)NCC1=C(C(=O)O)N2C(=O)C(NC(=O)CSc3nnc(-c4ccccc4)o3)[C@H]2SC1` (stereo partly drawn) [Example 8, 7-(2-phenyl-1,3,4-oxadiazole-5-ylthio)acetylamino-3-acetylaminomethylceph-3-em-4-carboxylic acid] came in with an MIC of over 100 µg/mL.

In turn, `O=C(CSc1nnc(-c2ccccc2)o1)NC1C(=O)N2C(C(=O)O)=C(CNC(=O)c3c(Cl)cccc3Cl)CS[C@H]12` (stereo partly drawn) [Example 15, 7-(2-phenyl-1,3,4-oxadiazole-5-ylthio)acetamido-3-(2,6-dichlorobenzoylamino)methylceph-3-em-4-carboxylic acid] registered an MIC of over 100 µg/mL.
